Data on 13 compounds can be found in ChEMBL document CHEMBL1157886, “Potent dihydroquinolinone dopamine D2 partial agonist/serotonin reuptake inhibitors for the treatment of schizophrenia” (Bioorg Med Chem Lett, 2010).

The structures appear in SMILES notation.

Sodium-dependent serotonin transporter, sequence (P31645 whole entry): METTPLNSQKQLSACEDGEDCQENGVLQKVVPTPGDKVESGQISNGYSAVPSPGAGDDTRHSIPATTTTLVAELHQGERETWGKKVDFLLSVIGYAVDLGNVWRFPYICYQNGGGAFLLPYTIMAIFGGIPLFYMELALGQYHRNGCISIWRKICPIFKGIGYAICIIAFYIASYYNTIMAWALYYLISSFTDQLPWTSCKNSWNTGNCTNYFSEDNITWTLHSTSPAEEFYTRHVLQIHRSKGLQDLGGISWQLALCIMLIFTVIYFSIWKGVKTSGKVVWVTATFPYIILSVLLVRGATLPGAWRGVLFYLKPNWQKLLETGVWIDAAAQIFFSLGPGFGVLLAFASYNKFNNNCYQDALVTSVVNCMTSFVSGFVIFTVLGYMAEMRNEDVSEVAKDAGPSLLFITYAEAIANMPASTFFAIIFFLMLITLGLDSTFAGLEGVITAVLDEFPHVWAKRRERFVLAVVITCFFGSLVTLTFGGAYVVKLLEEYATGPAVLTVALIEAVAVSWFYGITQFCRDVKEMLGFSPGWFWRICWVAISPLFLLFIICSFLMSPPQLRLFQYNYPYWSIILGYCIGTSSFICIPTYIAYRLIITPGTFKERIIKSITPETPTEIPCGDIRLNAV

The first test has as its target Sodium-dependent serotonin transporter (Homo sapiens, UniProt P31645).
The compound `CS(=O)(=O)Nc1cc(OCCN2CCC(Cc3ccc4c(c3)NC(=O)CC4)CC2)ccc1F` had a Ki of 20 nM.
As for `O=C1CCc2ccc(OC3CCN(C[C@@H]4COc5c(ccc6c5CC(=O)N6)O4)CC3)cc2N1`, the Ki is 20 nM.
`CS(=O)(=O)Nc1cccc(OCCN2CC3CCC(C2)C3Cc2ccc3c(c2)NC(=O)CC3)c1` (centres undefined): the Ki came to 1.7 nM. Compared with the last compound, the Ki is about 12-fold lower.
`CS(=O)(=O)Nc1cccc(OCCN2CCC(Cc3ccc4c(c3)NC(=O)CC4)CC2)c1` yielded a Ki of 19 nM. Compared with the last compound, the Ki is about 11-fold higher.
Take `O=C1CCc2ccc(CC3CC4CCC(C3)N4C[C@@H]3COc4c(ccc5c4CC(=O)N5)O3)cc2N1` (some centres undefined): the Ki is 0.26 nM. This Ki is about 73-fold lower than that of the compound before.
On the same count and under the same terms, for `O=C1CCc2ccc(CC3C4CCC3CN(C[C@@H]3COc5c(ccc6c5CC(=O)N6)O3)C4)cc2N1` (some centres undefined) the value was 1.5 nM; for `O=C1CCc2ccc(OCCCCN3CCN(c4cccc5[nH]c(=O)oc45)CC3)cc2N1`, 94 nM.
Compound `CS(=O)(=O)Nc1cc(OCCN2CC3CCC(C2)C3Cc2ccc3c(c2)NC(=O)CC3)ccc1F` (centres undefined) registered a Ki of 5 nM.
`O=C1CCc2ccc(CC3CCN(C[C@@H]4COc5c(ccc6c5CC(=O)N6)O4)CC3)cc2N1` came in with a Ki of 1.9 nM.
Still for that read-out and setting: for `O=C1CCc2ccc(OCCCN3CCN(c4cccc5[nH]c(=O)oc45)CC3)cc2N1` the value was 93 nM; for `CS(=O)(=O)Nc1cc(OCCN2CCC(Oc3ccc4c(c3)NC(=O)CC4)CC2)ccc1F`, 30 nM.
The same measure, in the same setting: for `O=C1CCc2ccc(OCCN3CCN(c4cccc5[nH]c(=O)oc45)CC3)cc2N1` the value was 538 nM; for `CS(=O)(=O)Nc1cccc(OCCN2CCC(Oc3ccc4c(c3)NC(=O)CC4)CC2)c1`, 22 nM.

Another test deals with T1, D(2) dopamine receptor (Homo sapiens, UniProt P14416). The experiment in a line: Displacement of [3H]spiperone form human dopamine D2 receptor by liquid scintillation counting.
T1 sequence (P14416 whole entry): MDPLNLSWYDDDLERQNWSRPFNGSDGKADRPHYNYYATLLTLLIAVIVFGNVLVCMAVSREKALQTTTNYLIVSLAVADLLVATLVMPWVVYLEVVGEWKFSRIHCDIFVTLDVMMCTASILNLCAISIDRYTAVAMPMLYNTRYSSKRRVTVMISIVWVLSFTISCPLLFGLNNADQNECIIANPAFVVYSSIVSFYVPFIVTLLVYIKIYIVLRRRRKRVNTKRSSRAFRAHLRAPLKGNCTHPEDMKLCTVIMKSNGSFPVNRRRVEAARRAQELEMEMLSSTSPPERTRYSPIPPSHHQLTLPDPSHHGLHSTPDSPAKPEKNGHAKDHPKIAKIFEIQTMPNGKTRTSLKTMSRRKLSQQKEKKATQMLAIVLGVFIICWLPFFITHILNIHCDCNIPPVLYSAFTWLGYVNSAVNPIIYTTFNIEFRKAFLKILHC
With `CS(=O)(=O)Nc1cc(OCCN2CCC(Cc3ccc4c(c3)NC(=O)CC4)CC2)ccc1F`, the Ki turned out to be 19 nM.
Still for that read-out and setting: for `O=C1CCc2ccc(OC3CCN(C[C@@H]4COc5c(ccc6c5CC(=O)N6)O4)CC3)cc2N1` the value was 2.5 nM; for `CS(=O)(=O)Nc1cccc(OCCN2CC3CCC(C2)C3Cc2ccc3c(c2)NC(=O)CC3)c1` (centres undefined), 11 nM.
On the same count and under the same terms, the figure for `CS(=O)(=O)Nc1cccc(OCCN2CCC(Cc3ccc4c(c3)NC(=O)CC4)CC2)c1` is 9 nM.
The same measure, in the same setting: for `O=C1CCc2ccc(CC3CC4CCC(C3)N4C[C@@H]3COc4c(ccc5c4CC(=O)N5)O3)cc2N1` (some centres undefined) the value was 16 nM; for `O=C1CCc2ccc(CC3C4CCC3CN(C[C@@H]3COc5c(ccc6c5CC(=O)N6)O3)C4)cc2N1` (some centres undefined), 6.3 nM.
Compound `O=C1CCc2ccc(OCCCCN3CCN(c4cccc5[nH]c(=O)oc45)CC3)cc2N1` had a Ki of 8.3 nM.
In the case of `CS(=O)(=O)Nc1cc(OCCN2CC3CCC(C2)C3Cc2ccc3c(c2)NC(=O)CC3)ccc1F` (centres undefined), the inhibition constant Ki amounted to 7 nM.
Same read-out and setting: the figure for `O=C1CCc2ccc(CC3CCN(C[C@@H]4COc5c(ccc6c5CC(=O)N6)O4)CC3)cc2N1` is 8 nM; for `O=C1CCc2ccc(OCCCN3CCN(c4cccc5[nH]c(=O)oc45)CC3)cc2N1` it is 8.6 nM.
Same read-out and setting: for `CS(=O)(=O)Nc1cc(OCCN2CCC(Oc3ccc4c(c3)NC(=O)CC4)CC2)ccc1F` the value was 9 nM.
Compound `O=C1CCc2ccc(OCCN3CCN(c4cccc5[nH]c(=O)oc45)CC3)cc2N1` showed a Ki of 8.6 nM.
The same measure, in the same setting: the figure for `CS(=O)(=O)Nc1cccc(OCCN2CCC(Oc3ccc4c(c3)NC(=O)CC4)CC2)c1` is 18 nM.

The target in another test is T2, Adrenergic receptor alpha-1 (Homo sapiens, UniProt P35348+P25100+P35368).
T2 sequence (P35348 whole entry): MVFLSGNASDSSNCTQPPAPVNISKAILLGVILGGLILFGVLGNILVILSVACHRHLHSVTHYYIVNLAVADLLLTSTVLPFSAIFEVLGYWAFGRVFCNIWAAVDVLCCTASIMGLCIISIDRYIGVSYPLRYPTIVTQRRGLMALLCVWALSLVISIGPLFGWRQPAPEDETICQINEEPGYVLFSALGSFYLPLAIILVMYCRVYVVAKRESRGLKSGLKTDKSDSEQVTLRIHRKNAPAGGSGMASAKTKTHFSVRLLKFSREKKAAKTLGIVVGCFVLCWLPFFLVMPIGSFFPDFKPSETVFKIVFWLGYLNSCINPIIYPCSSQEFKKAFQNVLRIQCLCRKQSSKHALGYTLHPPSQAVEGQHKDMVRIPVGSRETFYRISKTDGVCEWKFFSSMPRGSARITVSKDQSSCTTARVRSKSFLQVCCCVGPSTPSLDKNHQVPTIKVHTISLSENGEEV
T2 sequence (P25100 whole entry): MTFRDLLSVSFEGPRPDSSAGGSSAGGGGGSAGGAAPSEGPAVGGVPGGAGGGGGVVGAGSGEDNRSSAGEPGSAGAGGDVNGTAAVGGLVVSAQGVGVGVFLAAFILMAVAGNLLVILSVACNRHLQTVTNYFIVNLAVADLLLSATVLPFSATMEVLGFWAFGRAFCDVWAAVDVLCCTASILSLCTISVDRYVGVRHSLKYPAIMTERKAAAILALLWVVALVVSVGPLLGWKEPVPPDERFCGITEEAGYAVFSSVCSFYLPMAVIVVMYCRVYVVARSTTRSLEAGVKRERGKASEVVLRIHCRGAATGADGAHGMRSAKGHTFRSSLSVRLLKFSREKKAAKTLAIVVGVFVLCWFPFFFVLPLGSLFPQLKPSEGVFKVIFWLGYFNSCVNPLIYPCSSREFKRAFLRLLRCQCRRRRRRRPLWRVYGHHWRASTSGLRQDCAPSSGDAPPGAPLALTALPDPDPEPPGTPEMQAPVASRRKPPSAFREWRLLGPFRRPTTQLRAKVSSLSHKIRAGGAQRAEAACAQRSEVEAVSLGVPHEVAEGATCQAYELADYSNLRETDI
T2 sequence (P35368 whole entry): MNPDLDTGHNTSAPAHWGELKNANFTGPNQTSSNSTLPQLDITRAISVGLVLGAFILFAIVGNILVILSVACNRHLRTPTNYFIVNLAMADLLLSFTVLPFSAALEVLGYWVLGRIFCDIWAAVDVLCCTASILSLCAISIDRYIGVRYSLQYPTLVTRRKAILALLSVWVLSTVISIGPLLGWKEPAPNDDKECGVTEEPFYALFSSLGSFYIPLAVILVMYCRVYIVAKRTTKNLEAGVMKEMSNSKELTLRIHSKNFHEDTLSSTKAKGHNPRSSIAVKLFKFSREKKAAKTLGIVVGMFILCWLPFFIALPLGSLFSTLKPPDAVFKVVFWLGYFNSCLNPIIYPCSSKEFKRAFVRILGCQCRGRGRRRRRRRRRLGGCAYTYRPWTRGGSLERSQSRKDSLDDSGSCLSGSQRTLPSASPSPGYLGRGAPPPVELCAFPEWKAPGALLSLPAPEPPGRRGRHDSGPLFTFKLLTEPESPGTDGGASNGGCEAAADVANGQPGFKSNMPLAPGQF
Nature of the test: Binding affinity to human alpha1 adrenergic receptor by radioligand displacement assay.
`O=C1CCc2ccc(OC3CCN(C[C@@H]4COc5c(ccc6c5CC(=O)N6)O4)CC3)cc2N1` yielded a Ki of 2 nM.
The same measure, in the same setting: the figure for `CS(=O)(=O)Nc1cccc(OCCN2CC3CCC(C2)C3Cc2ccc3c(c2)NC(=O)CC3)c1` (centres undefined) is over 3300 nM; for `O=C1CCc2ccc(CC3CC4CCC(C3)N4C[C@@H]3COc4c(ccc5c4CC(=O)N5)O3)cc2N1` (some centres undefined) it is 8 nM.
On to `O=C1CCc2ccc(CC3C4CCC3CN(C[C@@H]3COc5c(ccc6c5CC(=O)N6)O3)C4)cc2N1` (some centres undefined), for which the Ki is 46 nM.
As for `CS(=O)(=O)Nc1cc(OCCN2CC3CCC(C2)C3Cc2ccc3c(c2)NC(=O)CC3)ccc1F` (centres undefined), the Ki came to 1100 nM. Against the preceding compound, the Ki is about 24-fold higher.
On the same count and under the same terms, the figure for `O=C1CCc2ccc(CC3CCN(C[C@@H]4COc5c(ccc6c5CC(=O)N6)O4)CC3)cc2N1` is 2 nM; for `CS(=O)(=O)Nc1cc(OCCN2CCC(Oc3ccc4c(c3)NC(=O)CC4)CC2)ccc1F` it is 354 nM.
Same read-out and setting: the figure for `CS(=O)(=O)Nc1cccc(OCCN2CCC(Oc3ccc4c(c3)NC(=O)CC4)CC2)c1` is 91 nM.

The target of the next test is T1, D(2) dopamine receptor. The experiment in a line: Ratio of compound to quinpirole partial agonist activity at human dopamine D2 receptor. In kind it is functional.
On to `CS(=O)(=O)Nc1cc(OCCN2CCC(Cc3ccc4c(c3)NC(=O)CC4)CC2)ccc1F`, for which the Ratio is under 0.1.
Regarding `O=C1CCc2ccc(OC3CCN(C[C@@H]4COc5c(ccc6c5CC(=O)N6)O4)CC3)cc2N1`, the Ratio stood at 0.41.
On the same count and under the same terms, for `CS(=O)(=O)Nc1cccc(OCCN2CC3CCC(C2)C3Cc2ccc3c(c2)NC(=O)CC3)c1` (centres undefined) the value was 0.25; for `CS(=O)(=O)Nc1cccc(OCCN2CCC(Cc3ccc4c(c3)NC(=O)CC4)CC2)c1`, under 0.1.
The same measure, in the same setting: the figure for `O=C1CCc2ccc(CC3CC4CCC(C3)N4C[C@@H]3COc4c(ccc5c4CC(=O)N5)O3)cc2N1` (some centres undefined) is under 0.1.
On the same count and under the same terms, for `O=C1CCc2ccc(CC3C4CCC3CN(C[C@@H]3COc5c(ccc6c5CC(=O)N6)O3)C4)cc2N1` (some centres undefined) the value was 0.4; for `CS(=O)(=O)Nc1cc(OCCN2CC3CCC(C2)C3Cc2ccc3c(c2)NC(=O)CC3)ccc1F` (centres undefined), 0.85.
Turning to `O=C1CCc2ccc(CC3CCN(C[C@@H]4COc5c(ccc6c5CC(=O)N6)O4)CC3)cc2N1`, the Ratio was determined as 0.38.
Same read-out and setting: for `CS(=O)(=O)Nc1cc(OCCN2CCC(Oc3ccc4c(c3)NC(=O)CC4)CC2)ccc1F` the value was under 0.1.
Still for that read-out and setting: for `CS(=O)(=O)Nc1cccc(OCCN2CCC(Oc3ccc4c(c3)NC(=O)CC4)CC2)c1` the value was 0.21.
